Assays:
[1] = test system: M. chitwoodi; assay: Meloidogyne chitwoodi infectivity assays (tomato roots in soil); type: in vivo; conditions: 45 μM in soil, 8 weeks, egg counts relative to DMSO control
Experimental: An M. incognita population originally collected from grape (Vitis vinifera) in Parlier, Calif., was used for all experiments, and they were maintained on tomato plants (Solanum lycopersicum ‘Rutgers’) as previously described^73. Infective J2 juveniles were collected as described in^73. For the infectivity assays, 90 grams of soil (1:1 sand:loam mix) was added to each cell of several 6-cell plastic garden packs. The soil was drenched with 18 mL of deionized water containing dissolved chemical or DMSO alone. 2,500 infective J2 juveniles were then added to the soil in 2 mL of deionized water, for a total water volume of 20 mL. The final concentration of the chemicals in water was 45 μM. The DMSO concentration varied from 0.1% to 0.8% (v/v) depending on the stock concentration of the chemical. The highest DMSO concentration was used as the DMSO control. The J2s were incubated in the soil and chemical for 24 hours, after which two- to three-week old tomato seedlings were transplanted into the soil (one plant per cell). […] The number of eggs from each plant root was counted on a dissection microscope using a haemocytometer, and the number of eggs per milligram of root was calculated by dividing the total egg number by the mass of the dried root material. […] An average percent effectiveness value was then calculated across the two different batches carried out on different days. […]

[2] = Limit of solubility / precipitation in assay media; type: physicochemical; conditions: 100 μM in water, 0.5% DMSO (zebrafish assay)
[3] = test system: HEK293 cells; assay: HEK cell culture and dose-response experiments; type: cell-based, Human; conditions: non-target system; 48 hours, CellTiter-Blue
Experimental: HEK293 cells were seeded into 96-well plates, at 5000 cells per well, in 100 μL total volumes of DMEM/10% FBS/1% PS media and grown overnight at 37° C. in the presence of 5% CO2. Compounds (0.5 μL volumes from appropriate source plates) were then added to cells, and growth was continued for an additional 48 hours. Following growth, 10 μL of CellTiter-Blue Viability reagent (Promega) was added to each well, and plates were incubated for an additional 4 hours at 37° C. in the presence of 5% CO2. Fluorescence measurements (560 nm excitation/590 nm emission) were then performed using a CLARIOstar Plate Reader (BMG Labtech) to quantify reagent reduction and estimate cell viability.

[4] = test system: D. rerio; assay: Danio rerio (zebrafish) embryo dose-response experiments; type: in vivo; conditions: non-target system; embryos, 24 hours exposure
Experimental: Zebrafish chemical assays were performed similarly to previously described methods^63. In brief, fish were maintained at 28.5° C. on a 14/10 hour light/dark cycle and staged according to hours post fertilization (hpf). For each biological replicate, eggs from LT fish (AB/Tubingen strain) were collected at 4 hpf. At 24 hpf, embryos were arrayed in 24 well plates, 10 per well. In 2 ml tubes, 4 μl of chemical dissolved in DMSO at the appropriate concentration was added to 800 μl of water and then vortexed for 30 s intensively. Water was removed from the embryos in the wells and 800 μl of chemical-treated water was transferred to each of the wells. The DMSO control wells contained DMSO alone. The final DMSO concentration in every well was 0.5% (v/v). […] The embryos were incubated in the chemicals for 24 hours and scored for death and toxicity at 48 hpf. Toxicity was defined as the embryos showing developmental defects such as a curved body, reduced body size, skin whiteness, and heart edema. “Relative viability” was calculated by dividing the number of viable and properly developed embryos in the treatment wells by the average number of viable and properly developed embryos across six DMSO control wells. Three biological replicates were performed for each dose-response experiment, and the relative viability values were averaged across the three replicates.

[5] = test system: Arabidopsis thaliana; assay: Arabidopsis thaliana greening experiments; type: in vivo; conditions: 5, 15 and 45 micromolar, greening after 4 days
Experimental: Greening experiments were performed with Arabidopsis thaliana seeds of wild type Col-0; seeds were surface sterilized in bleach and plated onto 0.5×MS, 0.5% sucrose agar medium supplemented with compounds of interest at 5, 15 and 45 μM concentrations. After 4 d of stratification at 4° C., plates were transferred to a growth chamber (16 h/8 h, 150 μE/m^2) and greening recorded after 4 days. Pictures were recorded by camera (SONY a7s) with FE1.8/55 lens (FE 55 mm F1.8 ZA; SEL55F18Z). Experiments were performed in triplicate for each treatment.

Clc1ccc(-c2cn3ccsc3n2)cc1 [Ia]
% effectiveness at inhibiting reproduction of M. chitwoodi [1]: 42.6%
compound precipitation [2]: Some compound precipitation was observed
HEK Cells LC50 [3]: inactive
D. rerio LC50 [4]: inactive
effect on health and greening of Arabidopsis thaliana plants (phytotoxicity) [5]: some phytotoxicity and yellowing at the highest concentration
